Publication PMC6009956, “Design, synthesis and biological activity of N^4-phenylsubstituted-7H-pyrrolo[2,3-d]pyrimidin-4-amines as dual inhibitors of aurora kinase A and epidermal growth factor receptor kinase” (Journal of Enzyme Inhibition and Medicinal Chemistry, 2017)
Read-outs that look alike come from different tables or passages of the source.

Legend:
[1] = target: T1, aurora A kinase (AURKA) (Homo sapiens, UniProt O14965); assay: ADP-Glo kinase assay, Aurora A; format: biochemical
T1 construct: purchased BPS Bioscience (assay run externally by the vendor)
T1 sequence (O14965 1-403): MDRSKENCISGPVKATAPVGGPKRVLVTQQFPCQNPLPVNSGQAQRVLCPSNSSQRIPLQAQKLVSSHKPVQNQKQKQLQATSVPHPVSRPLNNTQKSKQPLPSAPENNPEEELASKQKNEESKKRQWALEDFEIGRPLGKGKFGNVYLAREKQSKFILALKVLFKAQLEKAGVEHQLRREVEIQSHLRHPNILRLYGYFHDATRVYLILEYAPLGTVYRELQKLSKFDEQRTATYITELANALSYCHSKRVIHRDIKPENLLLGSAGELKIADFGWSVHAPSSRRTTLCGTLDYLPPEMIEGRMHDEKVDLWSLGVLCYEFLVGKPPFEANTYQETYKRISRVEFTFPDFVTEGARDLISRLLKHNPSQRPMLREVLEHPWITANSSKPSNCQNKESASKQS

[2] = target: EGFR (Homo sapiens, UniProt P00533); assay: ADP-Glo kinase assay, EGFR; format: biochemical; design: purchased BPS Bioscience (assay run externally by the vendor)
EGFR, sequence (P00533 25-1210): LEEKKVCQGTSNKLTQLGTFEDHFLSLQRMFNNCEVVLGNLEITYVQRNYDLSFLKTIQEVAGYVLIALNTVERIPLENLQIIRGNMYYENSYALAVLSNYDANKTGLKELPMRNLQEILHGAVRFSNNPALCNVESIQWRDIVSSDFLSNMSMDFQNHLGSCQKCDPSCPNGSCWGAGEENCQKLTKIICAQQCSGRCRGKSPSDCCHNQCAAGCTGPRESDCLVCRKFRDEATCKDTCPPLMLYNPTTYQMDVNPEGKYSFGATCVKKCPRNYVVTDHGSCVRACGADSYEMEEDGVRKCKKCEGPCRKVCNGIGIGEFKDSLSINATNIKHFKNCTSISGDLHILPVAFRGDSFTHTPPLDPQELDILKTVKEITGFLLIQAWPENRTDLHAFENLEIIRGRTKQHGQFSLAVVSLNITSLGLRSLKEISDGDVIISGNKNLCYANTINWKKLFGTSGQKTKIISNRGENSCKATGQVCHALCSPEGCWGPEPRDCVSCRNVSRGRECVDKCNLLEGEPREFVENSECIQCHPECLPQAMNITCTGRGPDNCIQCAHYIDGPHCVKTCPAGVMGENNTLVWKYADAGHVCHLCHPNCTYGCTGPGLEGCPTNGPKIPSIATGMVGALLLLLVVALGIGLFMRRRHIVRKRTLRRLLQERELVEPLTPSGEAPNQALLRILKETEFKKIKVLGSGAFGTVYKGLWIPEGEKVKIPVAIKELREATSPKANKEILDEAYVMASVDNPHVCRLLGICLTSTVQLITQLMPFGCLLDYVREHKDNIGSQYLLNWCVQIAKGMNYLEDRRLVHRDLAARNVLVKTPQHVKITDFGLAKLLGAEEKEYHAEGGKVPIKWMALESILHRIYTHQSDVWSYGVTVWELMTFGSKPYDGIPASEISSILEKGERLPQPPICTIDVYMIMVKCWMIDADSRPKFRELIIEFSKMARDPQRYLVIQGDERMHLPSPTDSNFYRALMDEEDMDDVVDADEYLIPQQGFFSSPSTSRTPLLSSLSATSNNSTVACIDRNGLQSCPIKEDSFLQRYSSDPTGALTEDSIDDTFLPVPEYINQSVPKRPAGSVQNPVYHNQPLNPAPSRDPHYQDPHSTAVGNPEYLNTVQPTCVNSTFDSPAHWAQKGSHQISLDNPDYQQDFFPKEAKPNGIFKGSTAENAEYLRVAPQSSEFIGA

IC50 ([1]; 10 µM ATP, triplicate, read-out: AURKA IC50 ± SD): 3.91 ± 0.11 µM
IC50 ([1]; 10 µM ATP/0.2 mg/ml Kemptide, read-out: Aurora A IC50 (dose-response curve, supplement)): 3.9 µM
Aurora A % Activity Set1 ([1]; Log[nM] 0): 95%
Aurora A % Activity Set2 ([1]; Log[nM] 0): 97%
Aurora A % Activity Set3 ([1]; Log[nM] 0): 103%
Aurora A % Activity Set1 ([1]; Log[nM] 1.0): 104%
Aurora A % Activity Set2 ([1]; Log[nM] 1.0): 95%
Aurora A % Activity Set3 ([1]; Log[nM] 1.0): 97%
Aurora A % Activity Set1 ([1]; Log[nM] 1.5): 98%
Aurora A % Activity Set2 ([1]; Log[nM] 1.5): 101%
Aurora A % Activity Set3 ([1]; Log[nM] 1.5): 102%
Aurora A % Activity Set1 ([1]; Log[nM] 2.0): 104%
Aurora A % Activity Set2 ([1]; Log[nM] 2.0): 107%
Aurora A % Activity Set3 ([1]; Log[nM] 2.0): 105%
Aurora A % Activity Set1 ([1]; Log[nM] 2.5): 103%
Aurora A % Activity Set2 ([1]; Log[nM] 2.5): 108%
Aurora A % Activity Set3 ([1]; Log[nM] 2.5): 106%
Aurora A % Activity Set1 ([1]; Log[nM] 3.0): 91%
Aurora A % Activity Set2 ([1]; Log[nM] 3.0): 104%
Aurora A % Activity Set3 ([1]; Log[nM] 3.0): 91%
Aurora A % Activity Set1 ([1]; Log[nM] 3.5): 55%
Aurora A % Activity Set2 ([1]; Log[nM] 3.5): 51%
Aurora A % Activity Set3 ([1]; Log[nM] 3.5): 58%
Aurora A % Activity Set1 ([1]; Log[nM] 4.0): 16%
Aurora A % Activity Set2 ([1]; Log[nM] 4.0): 21%
Aurora A % Activity Set3 ([1]; Log[nM] 4.0): 19%
Aurora A % Activity Set1 ([1]; Log[nM] 4.5): 11%
Aurora A % Activity Set2 ([1]; Log[nM] 4.5): 12%
Aurora A % Activity Set3 ([1]; Log[nM] 4.5): 11%
Aurora A % Activity Set1 ([1]; Log[nM] 5.0): 11%
Aurora A % Activity Set2 ([1]; Log[nM] 5.0): 12%
Aurora A % Activity Set3 ([1]; Log[nM] 5.0): 13%
EGFR inhibition (in words) [2]: single-digit nanomolar EGFR inhibition
IC50 ([2]; 10 µM ATP, triplicate, read-out: EGFR IC50 ± SD): 0.0067 ± 0.00025 µM
EGFR % Activity Set1 ([2]; Log[nM] 0): 51%
EGFR % Activity Set2 ([2]; Log[nM] 0): 59%
EGFR % Activity Set3 ([2]; Log[nM] 0): 58%
EGFR % Activity Set1 ([2]; Log[nM] 1.0): 43%
EGFR % Activity Set2 ([2]; Log[nM] 1.0): 46%
EGFR % Activity Set3 ([2]; Log[nM] 1.0): 48%
EGFR % Activity Set1 ([2]; Log[nM] 1.5): 14%
EGFR % Activity Set2 ([2]; Log[nM] 1.5): 16%
EGFR % Activity Set3 ([2]; Log[nM] 1.5): 16%
EGFR % Activity Set1 ([2]; Log[nM] 2.0): 8%
EGFR % Activity Set2 ([2]; Log[nM] 2.0): 9%
EGFR % Activity Set3 ([2]; Log[nM] 2.0): 9%
EGFR % Activity Set1 ([2]; Log[nM] 2.5): 3%
EGFR % Activity Set2 ([2]; Log[nM] 2.5): 4%
EGFR % Activity Set3 ([2]; Log[nM] 2.5): 5%
EGFR % Activity Set1 ([2]; Log[nM] 3.0): 2%
EGFR % Activity Set2 ([2]; Log[nM] 3.0): 2%
EGFR % Activity Set3 ([2]; Log[nM] 3.0): 2%
EGFR % Activity Set1 ([2]; Log[nM] 3.5): 1%
EGFR % Activity Set2 ([2]; Log[nM] 3.5): 1%
EGFR % Activity Set3 ([2]; Log[nM] 3.5): 1%
EGFR % Activity Set1 ([2]; Log[nM] 4.0): 0%
EGFR % Activity Set2 ([2]; Log[nM] 4.0): 0%
EGFR % Activity Set3 ([2]; Log[nM] 4.0): 1%
EGFR % Activity Set1 ([2]; Log[nM] 4.5): 0%
EGFR % Activity Set2 ([2]; Log[nM] 4.5): 0%
EGFR % Activity Set3 ([2]; Log[nM] 4.5): 0%
EGFR % Activity Set1 ([2]; Log[nM] 5.0): 0%
EGFR % Activity Set2 ([2]; Log[nM] 5.0): 3%
EGFR % Activity Set3 ([2]; Log[nM] 5.0): 1%
SMILES: Clc1ccc(Nc2ncnc3[nH]ccc23)cc1Cl [Compound 5, N^4-(3,4-dichlorophenyl)-7H-pyrrolo[2,3-d]pyrimidine-4-amine]
